Experimental data reported in US20060205753A1, “Use of methylnaltrexone and related compounds to treat post-operative gastrointestinal dysfunction” (priority 2005, published 2006).
“Also recorded” adds a separate entry of the source. Where two headings read alike, the source gives them in different places.

Tests used:
[1] = tested on: human segmental colectomy patients; assay: Phase 2 randomized, double-blind, placebo-controlled study of IV MNTX after segmental colectomy; format: in vivo
Source text: The following non-limiting examples relate to a phase 2 human study using MNTX to reduce the duration of gastrointestinal dysfunction following segmental colectomy. The primary objective of this study was to assess the activity of parenterally administered MNTX every six hours compared with placebo in shortening the duration of or preventing post-operative ileus in patients who have undergone segmental colectomies. Evidence of activity of MNTX was based on at least one or more of the following: the time to tolerance of liquids, time to first bowel movement, time to tolerance of solid foods, time to the combination of first solid meal and bowel movement, time to first micturition post foley catheter removal, and time to hospital discharge. The use of daily anti-emetic and opioid medication was also assessed.
A total of 65 patients at eight surgical centers participated in the phase 2 randomized, double-blind, placebo-controlled study. Subjects underwent segmental colectomies primarily due to cancer or diverticular disease. Shortly after surgery (90 minutes post surgery), study medication (0.3 mg/kg MNTX or placebo) was administered intravenously at six-hour intervals for a maximum of seven days.
The study was a double-blind, randomized parallel group study designed to evaluate the safety and activity of IV (intravenous) MNTX in the treatment of patients who are undergoing segmental colectomies via laparotomy and the duration of their post-operative ileus. Patients were randomized to either placebo (saline) or a fixed dose of IV MNTX of 0.30 mg/kg patient body weight in 50 cc of 0.9% normal saline hung as an IV piggyback (IVPB) to the main line and infused over twenty (20) minutes every six (6) hours until twenty-four (24) hours after the patient could tolerate solid foods, until discharged from the hospital, or for a maximum of seven (7) days. These time points for study drug discontinuation were selected in order to analyze the secondary efficacy endpoints of IV MNTX as well as the primary endpoints.
Day of Surgery. Within twenty-four (24) hours of surgery, patients were randomly assigned to either the MNTX 0.30 mg/kg or placebo (saline) dose group.
Prior to the first study drug administration the patient's vital signs were monitored. Patients were asked to assess their level of nausea, abdominal cramping, pain, and itching based on a verbal numerical scale. Within 90 minutes from the end of the surgical procedure, defined as the surgical end time recorded on the operating room (OR) sheet (regardless of whether a patient was in the PACU or not) the first dose of study drug was administered intravenously through an already existing IV line, hung as an IV piggyback (IVPB) to the main line, over 20 minutes. If the IV line was being used for other medications, i.e. antibiotics, electrolyte supplements, etc., the line was flushed with 20 cc of the main IV fluid prior to the hanging of study product. The patient's vital signs were monitored at the end of the study medication infusion, 20 min, 60 min, 120 min and 180 minutes after this first IV study drug administration. Patients were asked to assess their level of nausea, abdominal cramping, pain, and itching based on a verbal numerical scale and whether or not they had vomited 60 minutes after the end of the first study drug administration.
Inability to tolerate clear liquids was defined as nausea and/or vomiting within the first 60 minutes of the challenge.
The patient's diet was advanced to full liquids (≧500 cc of liquid) at the meal following the patient's tolerance of their first 30 cc of water by mouth. The patient's diet was then advanced to solid foods at the meal following their tolerance of full liquids. Tolerance of full liquids was defined as no clinically significant nausea and no vomiting within the first hour of the conclusion of the full liquids. […]

rat = settings: cited from earlier work
mu opioid receptor = mu opioid receptor (Homo sapiens, UniProt P35372); settings: Alvimopan compared with methylnaltrexone; as characterized by Adolor Corporation; cited from earlier work
[2] = white crystalline powder as provided; cited from earlier work
[3] = tested on: human patients, abdominal surgery; settings: 6 mg and 12 mg oral doses, started at least two hours prior to abdominal surgery; cited from earlier work
[4] = segmental colectomy patients, MNTX 0.30 mg/kg IV every 6 hours, on average
[5] = segmental colectomy patients, on average
[6] = sigmoidectomy patients, MNTX IV after surgery, on average

mu opioid receptor, sequence (P35372 whole entry, species assumed): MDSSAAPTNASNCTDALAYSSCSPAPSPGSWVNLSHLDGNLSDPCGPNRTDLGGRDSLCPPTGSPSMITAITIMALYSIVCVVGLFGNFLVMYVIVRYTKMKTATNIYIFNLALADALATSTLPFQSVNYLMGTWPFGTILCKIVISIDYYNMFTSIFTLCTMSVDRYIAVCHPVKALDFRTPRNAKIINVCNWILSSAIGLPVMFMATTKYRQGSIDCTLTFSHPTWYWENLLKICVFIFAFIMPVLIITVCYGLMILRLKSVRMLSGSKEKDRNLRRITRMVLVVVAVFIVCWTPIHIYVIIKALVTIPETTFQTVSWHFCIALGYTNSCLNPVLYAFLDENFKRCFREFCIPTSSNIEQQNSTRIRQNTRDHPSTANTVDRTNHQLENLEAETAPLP

## C[N+]1(CC2CC2)CC[C@]23c4c5ccc(O)c4O[C@H]2C(=O)CC[C@@]3(O)[C@H]1C5 (stereo partly drawn) [MNTX, N-cyclopropylmethylnoroxy-morphine-methobromide]
[1]; segmental colectomy patients, MNTX 0.30 mg/kg IV every 6 hours started after surgery, on average
  Time to first bowel movement: about 97 hours
[1]; [4]
  Time to actual discharge: about 140 hours
  Time to discharge eligibility: about 119 hours
  Time to first flatus: about 88 hours
  Time to first full liquid diet: about 70 hours
  Time to first solid meal: about 100 hours
  Time to first solid meal and bowel movement (solids in-solids out): about 124 hours
  Time to first use of an anti-emetic: about 26 hours
[1]; [5]
  Time to first anti-emetic use, delayed relative to absence of drug: about 10 hours
  Time to first flatus, accelerated relative to absence of drug: about 8 hours
[1]; sigmoidectomy patients, MNTX IV after surgery
  Time to first solid meal: about 93 hours
[1]; [6]
  Time to actual discharge: ≤ 125 h
  Time to discharge eligibility: about 105 hours
  Time to first bowel movement: about 94 hours
  Time to first flatus: about 85 hours
rat; MNTX intravenously 90 minutes before surgery
  Recovery of gastrointestinal transit: signs of partial recovery of gastrointestinal transit
rat; MNTX intravenously closer to surgery (60 minutes or 45 minutes before surgery)
  Recovery of gastrointestinal transit: not
Mu opioid receptor
  Affinity for mu opioid receptor, relative: lower mu opioid receptor affinity than Alvimopan
[2]
  Solubility in water: freely soluble in water

## C[C@H]1CN(C[C@H](Cc2ccccc2)C(=O)NCC(=O)O)CC[C@@]1(C)c1cccc(O)c1 [Alvimopan]
[3]
  Outcome of phase III human studies on post-operative gastrointestinal dysfunction end-points: inconsistent results that lacked statistical significance for many of the end-points; also recorded: inconsistent and lack statistical significance with respect to many of the end-points
Mu opioid receptor
  Affinity for mu opioid receptor, relative: greater affinity and selectivity than methylnaltrexone
